According to US7850984B2, “Protection of the female reproductive system from natural and artificial insults” (The General Hospital Corporation, priority 2000, dated 2010):

Legend:
C57BL/6J female mice = test: Mating trials of irradiated female mice; format: in vivo, mouse
Description: Eight-week old C57BL/6J female mice (Jackson Laboratories) are anesthetized by intraperitoneal injection of Avertin (30 μl of a 1.25% stock solution per gram of body weight; Aldrich Chemical Co.), and dorsal incisions are made to retrieve and expose the ovaries. Five μl of vehicle (5% polyethylene glycol, 2.5% ethanol, and 0.8% Tween-80, or PET) or of a stock of 2 mM S1P (BIOMOL) prepared in PET are injected into the bursa surrounding each ovary (see Example 10). Based on an estimated bursal cavity volume of 50 μl, the final concentration of S1P following this procedure is 200 μM. The ovaries are returned to the peritoneal cavity, the incisions are sutured, and the mice are allowed to recover for a 2-h pre-treatment period. Mice are then given a single dose of 0.05 or 0.1 Gy of abdominally directed ionizing radiation, using a cesium^137 source (Shepherd Mar-I, Model 68) at a dose rate of 0.7 Gy min^−1.
To evaluate whether the acute protection of oocytes by S1P also results in long-term preservation of ovarian function and fertility, mating trials are initiated 2 months after irradiation. For these studies, 8-week old C57BL/6J female mice are given intrabursal injections of vehicle or a maximally effective dose of S1P (0.2 mM final concentration in the bursal cavity) two hours before exposure to 0.1 Gy of ionizing radiation, delivered as a single dose. […] Females, irradiated without or with S1P pre-treatment, are then mated with non-irradiated C57BL/6J males beginning 2 months post-irradiation. The F0 females are caged with adult (2-4 month old) wild type C57BL/6J males for 15 d. As a control to assure the fertility of the males, each is mated to a female of proven fertility. After delivery, pups of first time mothers are fostered while pups of subsequent litters are maintained with their natural mothers. […] The F0 female mice are bred again with a new wild type male two weeks after the pups are weaned, and the process is repeated for a total of 4 matings.
It is next examined whether preservation of ovarian function and fertility might result in propagation of genomic damage to the F2 progeny. To generate F2 offspring, F1 males and females are each bred at 2 months of age with adult (2-4 month old) wild type C57BL/6J females or males, respectively (see FIG. 6 for details).

F0 oocytes = test: DNA damage in F0 oocytes scored at diakinesis/metaphase I; format: in vivo, mouse

SMILES: CCCCCCCCCCCCC/C=C/[C@@H](O)[C@@H](N)COP(=O)(O)O [S1P, sphingosine-1-phosphate]
- irradiated females remaining fertile after one year (C57BL/6J female mice; 200 μM S1P before 0.1 Gy, fourth mating trial, P<0.001 vs. vehicle-treated irradiated females): 75%
- irradiated females delivering litters, first mating trial (C57BL/6J female mice; 200 μM S1P before 0.1 Gy, mating 2 months post-irradiation, n=8): all
- litter size (C57BL/6J female mice; S1P-treated irradiated group (0.1 Gy), average): 6.1±0.4 pups per mating
- frequency of rejection of pups by irradiated mothers (C57BL/6J female mice; mothers treated or not with S1P): no increase in the frequency of rejection of pups
- phenotypic or behavioral abnormalities in F2 offspring (C57BL/6J female mice; second generation): no gross phenotypic or behavioral abnormalities
- phenotypic or behavioral abnormalities in F1 offspring (C57BL/6J female mice; up to 18 months of age): No phenotypic or behavioral abnormalities
- Oocytes with Breaks/Crosstalk (% of total) (F0 oocytes; 0.05 Gy + S1P): 16.4%
- Average Oocytes/o (mean ± SEM) (F0 oocytes; 0.05 Gy + S1P (200 μM intrabursal), 8 weeks after irradiation, n=8): 30.8 ± 3.9
- Oocytes with Breaks/Crosstalk, number (F0 oocytes; 0.05 Gy + S1P, of 110 total scorable oocytes): 18
- Oocytes with Breaks/Crosstalk (% of total) (F0 oocytes; 0.1 Gy + S1P): 27.6%
- Oocytes with Breaks/Crosstalk, number (F0 oocytes; 0.1 Gy + S1P, of 86 total scorable oocytes): 24
- percentage of oocyte population manifesting DNA damage versus vehicle-treated irradiated mice (F0 oocytes; S1P-treated irradiated females): no increase in the percentage of the oocyte population manifesting DNA damage
